In one assay the test system is plasma cholesterol. As to the kind of experiment: Plasma cholesterol in cholesterol-cholic acid fed rats. The format is in vivo. Conditions: Rattus norvegicus, oral gavage; for change in vivo at 20 mg/kg / change in vivo at 100 mg/kg / change in vivo at 40 mg/kg / change in vivo at 60 mg/kg: 96 h, four days, read-out: % Decrease in Plasma Cholesterol. The procedure: In addition, representative compounds were studied in vivo in cholesterol-cholic acid fed rats to determine the percent decrease of cholesterol in their plasma. This study involves rats which are, prior to testing, trained for one week to eat over a four hour time period each day. Upon initiation of the experiment, the rats diet is supplemented with 1.0 percent cholesterol and 0.25 percent cholic acid. The rats are dosed with the test compound by oral gavage just prior to adjust following the four hour feeding period. This is repeated for four days. On the fifth day, the rats are sacrificed and the total plasma cholesterol content is determined. The percent decrease in elevated plasma cholesterol levels is calculated in comparison with […].

Assay [1] relates to acyl-coenzyme A: cholesterol acyltransferase. As to the kind of experiment: Inhibition of ACAT / intracellular cholesterol esterification in vitro (procedure of Ross et al.). The format is cell-based.

Like-named read-outs stand apart in the source and are kept apart here.

On to `CCCCCc1ccc(CN(C(Nc2ccc(N(C)C)cc2C)=C2C(=O)OC(C)(C)OC2=O)C(C)CCCCC)cc1` (stereo not shown) [Compound 54, 5-[[[4-(Dimethylamino)-2-methylphenyl]amino][(1-methylhexyl)[(4-pentylphenyl)methyl]-amino]methylene]-2,2-dimethyl-1,3-dioxane-4,6-dione], for which the change in vivo at 20 mg/kg in the assay on plasma cholesterol is -77%. Also, the “% Inhibition” value in assay [1] (25 μM) amounted to 98%. Moreover, in assay [1] (read-out: IC50), the IC50 is 0.68 µM.

For the molecule `CCCCCCC(CCCCCC)N(Cc1ccc(CC(C)C)cc1)C(Nc1ccc(N(C)C)cc1)=C1C(=O)OC(C)(C)OC1=O` [Compound 36], the change in vivo at 20 mg/kg with plasma cholesterol was -62%. Besides, the “% Inhibition” value in assay [1] (26 μM) is 99%. Further, the IC50 in assay [1] (read-out: IC50) was 0.044 µM.

For `CCCCCCCN(Cc1ccc(CCC(C)C)cc1)C(Nc1ccc(OC)cc1OC)=C1C(=O)OC(C)(C)OC1=O` [Compound 55, 5-[[(2,4-Dimethoxyphenyl)amino][heptyl[[4-(3-methylbutyl)phenyl]methyl]amino]methylene]2,2-dimethyl-1,3-dioxane-4,6-dione], in the assay with plasma cholesterol, the change in vivo at 20 mg/kg was -40%. Moreover, in assay [1] (25 μM), the “% Inhibition” value came to 97%. Further, the IC50 in assay [1] (read-out: IC50) was determined as 3 µM.

`CCCCCCCN(Cc1ccc(CCCCC)cc1)C(Nc1ccc(OC)cc1OC)=C1C(=O)OC(C)(C)OC1=O` [Compound 14, 5-[[(2,4-Dimethoxyphenyl)amino][heptyl[(4-pentylphenyl)methyl]amino]methylene]-2,2-dimethyl-1,3-dioxane-4,6-dione]: the change in vivo at 100 mg/kg with plasma cholesterol is -85%. This molecule also showed an ED50 in the assay on plasma cholesterol (fifty percent reduction of plasma cholesterol) of 16 mg/kg. The “% Inhibition” value in assay [1] (25 μM) is 99%. Further, in assay [1] (read-out: IC50), the IC50 was 0.84 µM.

Consider `CCCCOc1ccc(NC(=C2C(=O)OC(C)(C)OC2=O)N(Cc2ccc(C(C)(C)C)cc2)C(C)CCCC(C)C)cc1` (stereo not shown) [Compound 28, 5-[[(4-Butoxyphenyl)amino][[[4-(1,1-dimethylethyl)phenyl]methyl](1,5-dimethylhexyl)amino]-methylene]-2,2-dimethyl-1,3-dioxane-4,6-dione], for which, in the assay on plasma cholesterol, the change in vivo at 40 mg/kg is -15%. For the same molecule, the “% Inhibition” value in assay [1] (25 μM) is 98%. In assay [1] (read-out: IC50), the IC50 was found to be 0.69 µM.

On to `CCCCCC(C)N(Cc1ccc(OCCC(C)C)cc1)C(Nc1ccc(N(C)C)cc1)=C1C(=O)OC(C)(C)OC1=O` (stereo not shown) [Compound 38, 5-[[[4-(Dimethylamino)phenyl]amino][[[4-(3-methylbutoxy)phenyl]methyl](1-methylhexylhexyl)amino]methylene]-2,2-dimethyl-1,3-dioxane-4,6-dione], for which the change in vivo at 40 mg/kg in the assay with plasma cholesterol is -58%. Besides, the “% Inhibition” value in assay [1] (25 μM) is recorded as 99%. Further, the IC50 in assay [1] (read-out: IC50) was 0.21 µM.

On to `CCCCCCCN(Cc1ccc(OCCC(C)C)cc1)C(Nc1ccc(OC)cc1OC)=C1C(=O)OC(C)(C)OC1=O` [Compound 6, 5-[[(2,4-Dimethoxyphenyl)amino][heptyl[[4-[(3-methylbutyl)oxy]phenyl]methyl]amino]-methylene]-2,2-dimethyl-1,3-dioxane-4,6-dione], for which, in the assay with plasma cholesterol, the change in vivo at 100 mg/kg was -42%. Besides, in assay [1] (25 μM), the “% Inhibition” value was 99%. In addition, the IC50 in assay [1] (read-out: IC50) is 1.5 µM.

With `COc1ccc(NC(=C2C(=O)OC(C)(C)OC2=O)N(Cc2ccc(CC(C)C)cc2)C(C)CCCC(C)C)c(OC)c1` (stereo not shown) [Compound 39, 5-[[(2,4-Dimethoxyphenyl)amino][(1,5-dimethylhexyl)[[4-(2-methylpropyl)phenyl]methyl]amino]methylene]-2,2-dimethyl-1,3-dioxane-4,6-dione], the change in vivo at 40 mg/kg in the assay on plasma cholesterol is -65%. For the same molecule, in assay [1] (25 μM), the “% Inhibition” value came out at 99%. The IC50 in assay [1] (read-out: IC50) turned out to be 0.37 µM.

Consider `COc1ccc(NC(=C2C(=O)OC(C)(C)OC2=O)N(Cc2ccc(C(C)(C)C)cc2)C(C)CCCC(C)C)c(OC)c1` (stereo not shown) [Compound 29, 5-[[(2,4-Dimethoxyphenyl)amino][[[4-(1,1-dimethylethyl)phenyl]methyl](1,5-dimethylhexyl)-amino]methylene]-2,2-dimethyl-1,3-dioxane-4,6-dione], for which the change in vivo at 100 mg/kg in the assay on plasma cholesterol is -84%. Moreover, the “% Inhibition” value in assay [1] (25 μM) came out at 99%. Moreover, the IC50 in assay [1] (read-out: IC50) was found to be 0.23 µM.

As for `CCCCCC(C)N(Cc1ccc(CC(C)C)cc1)C(Nc1cccc(OCc2ccccc2)c1)=C1C(=O)OC(C)(C)OC1=O` (stereo not shown) [Compound 34], the change in vivo at 20 mg/kg in the assay with plasma cholesterol is -32%. For the same molecule, the “% Inhibition” value in assay [1] (25 μM) is recorded as 98%. For the same molecule, the IC50 in assay [1] (read-out: IC50) turned out to be 1.1 µM.

For `CCCCCC(C)N(Cc1ccc(OCCC(C)C)cc1)C(Nc1ccc(OC)cc1OC)=C1C(=O)OC(C)(C)OC1=O` (stereo not shown) [Compound 35], in the assay with plasma cholesterol, the change in vivo at 40 mg/kg was -55%. Also, in assay [1] (25 μM), the “% Inhibition” value turned out to be 99%. In assay [1] (read-out: IC50), the IC50 worked out at 0.54 µM.

For `CCCCCC(C)N(Cc1ccc(CCC(C)C)cc1)C(Nc1ccc(N(C)C)cc1)=C1C(=O)OC(C)(C)OC1=O` (stereo not shown) [Compound 57, 5-[[[4-(Dimethylamino)phenyl]amino][[[4-(3-methylbutyl)phenyl]methyl](1-methylhexyl)-amino]methylene]-2,2-dimethyl-1,3-dioxane-4,6-dione], the “% Inhibition” value in assay [1] (25 μM) is given as 96%. Further, the IC50 in assay [1] (read-out: IC50) stood at 0.41 µM.

Regarding `COc1ccc(NC(=C2C(=O)OC(C)(C)OC2=O)N(Cc2ccc(CC(C)C)cc2)[C@@H](CO)Cc2ccccc2)c(OC)c1` [Compound 12, (R)-5-[[(2,4-Dimethoxyphenyl)amino][[(1R)1-(hydroxymethyl)-2-phenylethyl][[4-(2-methyl-propyl)phenyl]methyl]amino]methylene]-2,2-dimethyl-1,3-dioxane-4.6-dione], the “% Inhibition” value in assay [1] (25 μM) was found to be 96%.

As to `CCCCCCCN(Cc1ccc(C(C)(C)C)cc1)C(Nc1ccc(F)cc1F)=C1C(=O)OC(C)(C)OC1=O` [Compound 15], in assay [1] (50 μM), the “% Inhibition” value turned out to be 63%.

On to `CCCCCCCC/C=C\CCCCCCCCN(Cc1ccc(C(C)(C)C)cc1)C(Nc1ccc(OC)cc1OC)=C1C(=O)OC(C)(C)OC1=O` [Compound 70, 5-[[(2,4-Dimethoxyphenyl)amino][[[4-(1,1-dimethylethyl)phenyl]methyl]((Z)-9-octadecenyl)-amino]methylene]-2,2-dimethyl-1,3-dioxane-2,4-dione], for which the “% Inhibition” value in assay [1] (25 μM) was 24%.

On to `CCCCCCCN(Cc1ccc(C(C)(C)C)cc1)C(Nc1ccc(OCc2ccccc2)cc1)=C1C(=O)OC(C)(C)OC1=O` [Compound 26], for which the “% Inhibition” value in assay [1] (25 μM) worked out at 92%. The IC50 in assay [1] (read-out: IC50) turned out to be 0.92 µM.

For the molecule `CCCCCCCCCCN(Cc1ccc(C(C)(C)C)cc1)C(Nc1ccc(OC)cc1OC)=C1C(=O)OC(C)(C)OC1=O` [Compound 65], in assay [1] (25 μM), the “% Inhibition” value amounted to 98%. Further, the IC50 in assay [1] (read-out: IC50) came to 2.3 µM.

For `CC1(C)OC(=O)C(=C(Nc2cccnc2)Nc2cc(C(C)(C)C)c(O)c(C(C)(C)C)c2)C(=O)O1` [Compound 82], the “% Inhibition” value in assay [1] (50 μM) is 94%.

On to `CCCCCCCN(Cc1ccc(OCCC(C)C)cc1)C(Nc1ccc(N(C)C)cc1)=C1C(=O)OC(C)(C)OC1=O` [Compound 22, 5-[[[4-(Dimethylamino)phenyl]amino][heptyl[[[4-(3-methylbutyl)oxy]phenyl]methyl]amino]-methylene]-2,2-dimethyl-1,3-dioxane4,6-dione], for which the change in vivo at 60 mg/kg in the assay with plasma cholesterol was -46%. Moreover, the “% Inhibition” value in assay [1] (25 μM) was 93%. For the same molecule, the IC50 in assay [1] (read-out: IC50) came to 0.37 µM.

As to `CCCCCCCN(Cc1ccc(CCCCC)cc1)C(Nc1ccc(C(F)(F)F)cc1)=C1C(=O)OC(C)(C)OC1=O` [Compound 17, 5-[[[4-(Trifluoromethyl)phenyl]amino][heptyl[(4-pentylphenyl)methyl]amino]methylene]-2,2-dimethyl-1,3-dioxane-4,6-dione], the “% Inhibition” value in assay [1] (25 μM) is listed as 72%.

Consider `CCCCCCCN(Cc1ccc(CC(C)C)cc1)C(Nc1ccc(OC)cc1OC)=C1C(=O)OC(C)(C)OC1=O` [Compound 31, 5-[[(2,4,-Dimethoxyphenyl)amino][heptyl[[4-(2-methylpropyl)phenyl]methyl]amino]methylene]-2,2-dimethyl-1,3-dioxane-4,6-dione], for which the change in vivo at 60 mg/kg with plasma cholesterol is -71%. Moreover, the “% Inhibition” value in assay [1] (25 μM) is 97%. For the same molecule, the IC50 in assay [1] (read-out: IC50) stood at 0.91 µM.

Consider `COc1ccc(NC(=C2C(=O)OC(C)(C)OC2=O)N(Cc2ccc(CC(C)C)cc2)[C@@H](CO[Si](C)(C)C(C)(C)C)CC(C)C)c(OC)c1` [Compound 71], for which the IC50 in assay [1] was found to be 0.53 µM. Besides, the “% Inhibition” value in assay [1] (25 μM) stood at 97%.

For the molecule `CC(C)Cc1ccc(CN(C(Nc2ccc(N(C)C)cc2)=C2C(=O)OC(C)(C)OC2=O)C(C)CN2CCOCC2)cc1` (stereo not shown) [Compound 51], the “% Inhibition” value in assay [1] (25 μM) is 66%.

Take `CCCCc1ccc(CN(C(Nc2ccc(N(C)C)cc2)=C2C(=O)OC(C)(C)OC2=O)C(C)CCCC(C)(C)O)cc1` (stereo not shown) [Compound 45, 5-[[[(4-Butylphenyl)methyl](5-hydroxy-1,5-dimethylhexyl)amino][[4-(dimethylamino)phenyl]-amino]-methylene]-2,2-dimethyl-1,3-dioxane-4,6-dione]: the change in vivo at 20 mg/kg with plasma cholesterol is -29%. The “% Inhibition” value in assay [1] (25 μM) was 90%. Further, the IC50 in assay [1] (read-out: IC50) was 5.2 µM.

On to `CCCCCCN(CCCCCC)C(Nc1ccc(OC)cc1OC)=C1C(=O)OC(C)(C)OC1=O` [Compound 1, 5-[(Dihexylamino)[(2,4-dimethoxyphenyl)amino]methylene]-2,2-dimethyl-1,3-dioxane-4,6-dione], for which the “% Inhibition” value in assay [1] (50 μM) came out at 65%.
